Common to all, as to type: in vivo
Experiment [1] concerns Digitaria adscendens. The experiment can be described thus: Pre-emergence test (Example 6). To be noted: 10 days. How it is done:
Upland soil was put in a pot of 10 cm diameter and the seeds of Digitaria adscendens were sown in the soil surface at a depth of 1 cm. After compacting the soil surface gently, the soil was sprayed evenly with solutions of Phosalacine sodium salt dissolved at different concentrations in water (each 5 ml). 10 days later, the number of emerged seedlings was counted and the percentage inhibition of emergence was evaluated by comparison with untreated plots. For comparison, a similar test was carried out using glyphosate (monosodium salt) instead of Phosalacine salt. The results shown in the following Table indicate that the pre-emergence effect of Phosalacine was better than that of glyphosate.

The subject of experiment [2] is Digitaria adscendens. The experiment can be described thus: Foliage treatment of seedlings in pots (Example 7). As to conditions: 10 days after foliage treatment, 1000 liter per hectare. How it is done: Upland soil was put in a pot of 10 cm diameter and the seeds of Digitaria adscendens were sown in the soil at a depth of 1 cm from the surface. When the height of the seedlings was about 10 cm, aqueous solutions of the test compounds as shown in the following Table were uniformly sprayed on the plants at a rate of 1.2 ml per plant, equivalent to 1000 liter per hectare. 10 days after the foliage treatment, damage to plants was visually assessed on a scale of from 0 to 10, where 0 indicates no effect and 10 indicates complete kill.

In another experiment the test system is Rumex obtusifolius. Description: Foliage treatment with different salts (Example 11). Further details: key: 0 indicates no effect; 5 indicates complete kill. To be noted: Rumex obtusifolius (Plant No. 14), 1000 liter per hectare. On the procedure: Aqueous solutions containing different salts of Phosalacine at different concentrations as active ingredients and 0.1% of octylphenylpolyoxy ethanol as surfactant were applied at a rate of 1000 liter per hectare to Rumex obtusifolius (Plant No. 14) at a certain stage of growth. 21 days after foliage treatment, damage to the plant was visually assessed on a scale of 0 to 5 as hereinbefore described. The salts used were prepared by the methods described in the reference mentioned above.

The next experiment deals with Eichhornia crassipes. The experiment can be described thus: Activity against aquatic plants (Example 12). As to conditions: 0.1%, 1500 liter per hectare, 4 weeks after the treatment. How it is done:
An aqueous solution containing 0.1% of Phosalacine (monosodium salt) and 0.1% of octylphenylpolyoxyethanol was applied to Eichhornia crassipes at a certain stage of growth, at a rate of 1500 liter per hectare as a foliage treatment. Damage to the plants was assessed visually 4 weeks after the treatment.

Counter-ions that a name gives are not always drawn.

Consider `CC(C)C[C@H](NC(=O)[C@H](C)NC(=O)[C@@H](N)CCP(C)(=O)O)C(=O)O` [Phosalacine (Na salt)], for which the “Percent inhibition of emergence” value turned out to be 80% in the experiment with Digitaria adscendens [1] (500 g/ha), 100% in the experiment on Digitaria adscendens [1] (1000 g/ha) and 100% with Digitaria adscendens [1] (2500 g/ha). In addition, the “damage to plants, scale 0 to 10” value with Digitaria adscendens [2] (Concentration 0.01 ppm) is given as 3 (30); in the experiment with Digitaria adscendens [2] (Concentration 0.03 ppm) it was 10 (100); in the experiment with Digitaria adscendens [2] (Concentration 0.1 ppm), 10 (100). Also, the “Damage to plants after 21 days, scale 0 to 5” value was 3 in the experiment on Rumex obtusifolius (0.05%) and 5 in the experiment on Rumex obtusifolius (0.1%). For the same molecule, the “Damage to the plants, assessed visually” value in the experiment with Eichhornia crassipes is listed as “completely killed”.

Values taken from US4613355A, “Antibiotic having herbicidal activity” (Satoshi Omura, priority 1983, dated 1986).
